Source: patent US6737383B1, “Herbicidal oxadiazolidines” (priority 1999, dated 2004)

Columns and labels:
[1] = system: bedstraw; assay: Test B pre/postemergence bedstraw; assay type: in vivo, Galium aparine; details: Preemergence
Outline: (§1)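 Response is a visual 0-to-10 score relative to untreated plants, where 0 means no effect and 10 means complete control, taken twelve to sixteen days after application. Treatments went onto soil at planting and onto foliage of 1- to 4-leaf plants, using a surfactant-containing non-phytotoxic solvent.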

[2] = system: blackgrass; assay: Test B pre/postemergence blackgrass; assay type: in vivo, Alopecurus myosuroides
Outline: as §1

[3] = system: surinam grass; assay: Test B pre/postemergence surinam grass; assay type: in vivo, Brachiaria decumbens
Outline: as §1

[4] = system: cocklebur; assay: Test B pre/postemergence cocklebur; assay type: in vivo, Xanthium strumarium
Outline: as §1

[5] = system: corn; assay: Test B pre/postemergence corn; assay type: in vivo, Zea mays
Outline: as §1

[6] = system: crabgrass; assay: Test B pre/postemergence crabgrass; assay type: in vivo, Digitaria sanguinalis
Outline: as §1

[7] = system: giant foxtail; assay: Test B pre/postemergence giant foxtail; assay type: in vivo, Setaria faberii
Outline: as §1

[8] = system: morningglory; assay: Test B pre/postemergence morningglory; assay type: in vivo, Ipomoea hederacea
Outline: as §1

[9] = system: pigweed; assay: Test B pre/postemergence pigweed; assay type: in vivo, Amaranthus retroflexus; details: for Plant response rating, Redroot pigweed: Postemergence
Outline: as §1

[10] = system: rape; assay: Test B pre/postemergence rape; assay type: in vivo, Brassica napus
Outline: as §1

[11] = system: soybean; assay: Test B pre/postemergence soybean; assay type: in vivo, Glycine max; details: for Plant response rating, Soybean: Postemergence
Outline: as §1

[12] = system: sugar beet; assay: Test B pre/postemergence sugar beet; assay type: in vivo, Beta vulgaris; details: for Plant response rating, Sugarbeets: Postemergence
Outline: as §1

[13] = system: velvetleaf; assay: Test B pre/postemergence velvetleaf; assay type: in vivo, Abutilon theophrasti; details: for Plant response rating, Velvetleaf: Postemergence
Outline: as §1

[14] = system: wheat; assay: Test B pre/postemergence wheat; assay type: in vivo, Triticum aestivum; details: for Plant response rating, Wheat: Postemergence
Outline: as §1

[15] = system: wild oat; assay: Test B pre/postemergence wild oat; assay type: in vivo, Avena fatua; details: for Plant response rating, Wild oats: Postemergence
Outline: as §1

[16] = system: purple nutsedge; assay: Test B pre/postemergence purple nutsedge; assay type: in vivo, Cyperus rotundus
Outline: as §1

[17] = Rate 500 g/ha, scale of 0 to 10 where 0 is no effect and 10 is complete control
[18] = Postemergence, Rate 62 g/ha, scale of 0 to 10, 0 is no effect, 10 is complete control
[19] = Postemergence, Rate 125 g/ha, scale 0 to 10, 0 is no effect, 10 is complete control
[20] = Postemergence, Rate 500 g/ha, scale of 0 to 10 where 0 is no effect and 10 is complete control
[21] = Preemergence, Rate 62 g/ha, scale 0 to 10 (0 no effect, 10 complete control)
[22] = Preemergence, Rate 125 g/ha, scale 0 to 10, 0 is no effect, 10 is complete control
[23] = Preemergence, Rate 500 g/ha, scale of 0 to 10 where 0 is no effect and 10 is complete control
[24] = Rate 250 g/ha, Postemergence, scale of 0 to 10 where 0 is no effect and 10 is complete control
[25] = Rate 250 g/ha, scale of 0 to 10 where 0 is no effect and 10 is complete control

CCN(CC)C(=O)Cn1c(=O)on(C(=O)N(c2ccccc2)C(C)C)c1=O [Compound 571]
9: Blackgrass plant response rating [2, 23] | B. signalgrass plant response rating [3, 23] | Giant foxtail plant response rating (0 to 10 scale) ([7]; Preemergence, Rate 250 g/ha) | Giant foxtail plant response rating [7, 23] | Redroot pigweed plant response rating (0 to 10 scale) ([9]; Preemergence, Rate 250 g/ha) | Redroot pigweed plant response rating [9, 23] | Wheat plant response rating [14, 23]
10: Morningglory plant response rating [8, 19] | Plant response rating, Morningglory [8, 20] | Plant response rating, Morningglory [8, 24]
4: Morningglory plant response rating [8, 18] | Morningglory plant response rating [8, 23] | Plant response rating, Soybean [11, 17]
0: Bedstraw plant response rating ([1]; Rate 62 g/ha, scale 0 to 10 (0 no effect, 10 complete control)) | Bedstraw plant response rating ([1]; Rate 125 g/ha, scale 0 to 10, 0 is no effect, 10 is complete control) | Bedstraw plant response rating (0 to 10 scale) ([1]; Rate 250 g/ha) | Bedstraw plant response rating [1, 17] | Blackgrass plant response rating [2, 18] | Blackgrass plant response rating [2, 19] | Plant response rating, Blackgrass [2, 20] | Blackgrass plant response rating [2, 21] | Plant response rating, Blackgrass [2, 24] | B. signalgrass plant response rating [3, 18] | B. signalgrass plant response rating [3, 19] | B. signalgrass plant response rating [3, 21] | Plant response rating, B. signalgrass [3, 24] | Cocklebur plant response rating [4, 18] | Cocklebur plant response rating [4, 19] | Plant response rating, Cocklebur [4, 20] | Cocklebur plant response rating [4, 21] | Cocklebur plant response rating [4, 22] | Cocklebur plant response rating (0 to 10 scale) ([4]; Preemergence, Rate 250 g/ha) | Cocklebur plant response rating [4, 23] | Plant response rating, Cocklebur [4, 24] | Corn plant response rating [5, 18] | Corn plant response rating [5, 19] | Plant response rating, Corn [5, 20] | Corn plant response rating [5, 21] | Corn plant response rating [5, 22] | Corn plant response rating (0 to 10 scale) ([5]; Preemergence, Rate 250 g/ha) | Corn plant response rating [5, 23] | Plant response rating, Corn [5, 24] | Crabgrass plant response rating [6, 18] | Crabgrass plant response rating [6, 19] | Giant foxtail plant response rating [7, 18] | Giant foxtail plant response rating [7, 19] | Morningglory plant response rating [8, 21] | Morningglory plant response rating [8, 22] | Plant response rating, Redroot pigweed [9, 17] | Redroot pigweed plant response rating [9, 21] | Redroot pigweed plant response rating [9, 22] | Plant response rating, Redroot pigweed [9, 25] | Rape plant response rating [10, 18] | Rape plant response rating [10, 19] | Plant response rating, Rape [10, 20] | Rape plant response rating [10, 21] | Rape plant response rating [10, 22] | Rape plant response rating (0 to 10 scale) ([10]; Preemergence, Rate 250 g/ha) | Plant response rating, Rape [10, 24] | Soybean plant response rating [11, 21] | Soybean plant response rating [11, 22] | Soybean plant response rating (0 to 10 scale) ([11]; Preemergence, Rate 250 g/ha) | Plant response rating, Sugarbeets [12, 17] | Sugarbeets plant response rating [12, 21] | Sugarbeets plant response rating [12, 22] | Sugarbeets plant response rating (0 to 10 scale) ([12]; Preemergence, Rate 250 g/ha) | Sugarbeets plant response rating [12, 23] | Plant response rating, Sugarbeets [12, 25] | Plant response rating, Velvetleaf [13, 17] | Velvetleaf plant response rating [13, 21] | Velvetleaf plant response rating [13, 22] | Velvetleaf plant response rating (0 to 10 scale) ([13]; Preemergence, Rate 250 g/ha) | Velvetleaf plant response rating [13, 23] | Plant response rating, Velvetleaf [13, 25] | Plant response rating, Wheat [14, 17] | Wheat plant response rating [14, 21] | Plant response rating, Wheat [14, 25] | Plant response rating, Wild oats [15, 17] | Wild oats plant response rating [15, 21] | Wild oats plant response rating [15, 22] | Plant response rating, Wild oats [15, 25] | Nutsedge plant response rating [16, 18] | Nutsedge plant response rating [16, 19] | Plant response rating, Nutsedge [16, 20] | Nutsedge plant response rating [16, 21] | Nutsedge plant response rating [16, 22] | Nutsedge plant response rating (0 to 10 scale) ([16]; Preemergence, Rate 250 g/ha) | Nutsedge plant response rating [16, 23] | Plant response rating, Nutsedge [16, 24]
2: Blackgrass plant response rating [2, 22] | Crabgrass plant response rating [6, 21] | Crabgrass plant response rating [6, 22] | Plant response rating, Giant foxtail [7, 24] | Morningglory plant response rating (0 to 10 scale) ([8]; Preemergence, Rate 250 g/ha) | Rape plant response rating [10, 23] | Plant response rating, Soybean [11, 25]
7: Wild oats plant response rating [15, 23]
3: Blackgrass plant response rating (0 to 10 scale) ([2]; Preemergence, Rate 250 g/ha) | B. signalgrass plant response rating [3, 22] | B. signalgrass plant response rating (0 to 10 scale, 0 is no effect, 10 is complete control) ([3]; Preemergence, Rate 250 g/ha) | Plant response rating, Crabgrass [6, 20] | Crabgrass plant response rating (0 to 10 scale) ([6]; Preemergence, Rate 250 g/ha) | Crabgrass plant response rating [6, 23] | Plant response rating, Giant foxtail [7, 20] | Giant foxtail plant response rating [7, 21] | Giant foxtail plant response rating [7, 22] | Soybean plant response rating [11, 23] | Wheat plant response rating [14, 22] | Wheat plant response rating (0 to 10 scale) ([14]; Preemergence, Rate 250 g/ha) | Wild oats plant response rating (0 to 10 scale) ([15]; Preemergence, Rate 250 g/ha)
5: Plant response rating, B. signalgrass [3, 20]
